Results taken from patent US20040236084A1, “2-Aminopyridine substituted heterocycles” (Pfizer Inc, priority 2003, published 2004).
Structures can show the parent of a compound that is named as a salt.

Key:
neointima formation = conditions: in rats; cited from earlier work
Cdk4/Cyclin D = Cdk4/Cyclin D (Homo sapiens, UniProt P11802); assay: Assay for inhibition of Cdk4/Cyclin D (32P incorporation into retinoblastoma protein, filter plate); assay type: biochemical
Protocol: (§1) To determine the inhibitory potency and selectivity of compounds of the present invention against Cdk4 and related kinases, compounds were evaluated in standard assays routinely used to measure inhibition of cyclin-dependent kinase enzymes and other protein kinases (see for example D. W. Fry et al., J. Biol. Chem. 2001, 276, 16617-16623). The assays were carried out as described below.
Assay for Inhibition of Cdk4/Cyclin D
The Cdk4 enzyme assay for IC50 determination and kinetic evaluation is performed as follows. 96-well filter plates (Millipore MADVN6550) are used. The total volume is 0.1 mL containing buffer A (20 mM TRIS (tris[hydroxymethyl]aminomethane) (pH 7.4), 50 mM NaCl, 1 mM dithiothreitol, 10 mM MgCl2), 25 [[…] ATP containing 0.25 μCi [^32P]ATP, 20 ng Cdk4, 1 μg retinoblastoma protein and the test compound at appropriate dilutions in buffer A. Buffer A alone without added test compound was employed as a control for no inhibition. Buffer A containing excess EDTA was used to determine the level of background ^32P in the absence of enzyme activity. All components except the ATP are added to the wells, and the plate is placed on a plate mixer for 2 minutes. The reaction is started by adding [^32P]ATP, and the plate is incubated at 25° C. for 15 minutes. The reaction is terminated by addition of 0.1 mL 20% trichloroacetic acid (TCA). The plate is kept at 4° C. for at least 1 hour to allow the substrate to precipitate. The wells are then washed five times with 0.2 mL 10% TCA, and ^32P incorporation is determined with a beta plate counter (Wallac Inc., Gaithersburg, Md.). The IC50 of the test compound was determined using the median effect method (Chou, T-C and Talalay, P. Applications of the median effect principle for the assessment of low-dose risk of carcinogens and for the quantitation of synergism and antagonism of chemotherapeutic agents. In: New Avenues in Developmental Cancer Chemotherapy (Eds. Harrap, K. T. and Connors, T. A.), pp. 37-64. Academic Press, New York, 1987).

Cdk2/cyclin A = Cdk2/cyclin A (Homo sapiens, UniProt P24941); assay: Assay for inhibition of Cdk2/Cyclin A (32P incorporation into retinoblastoma protein, filter plate); assay type: biochemical
Protocol: as §1
Assay for Inhibition of Cdk2/Cyclin A
Cdk2 enzyme assays for IC50 determinations and kinetic evaluation are performed as follows. 96-well filter plates (Millipore MADVN6550) are used. The final assay volume is 0.1 mL containing buffer A (20 mM TRIS (tris[hydroxymethyl]aminomethane) (pH 7.4), 50 mM NaCl, 1 mM dithiothreitol, 10 mM MgCl2), […] containing 0.25 μCi [^32P]ATP, 20 ng Cdk2/cyclin A, 1 μg retinoblastoma protein, and the test compound at appropriate dilutions in buffer A (Buffer A alone without added test compound was employed as a control for no inhibition. Buffer A containing excess EDTA was used to determine the level of background ^32P in the absence of enzyme activity). All components except the ATP are added to the wells, and the plate is placed on a plate mixer for 2 minutes. The reaction is initiated by addition of [^32P]ATP, and the plate is incubated at 25° C. for 15 minutes. The reaction is terminated by addition of 0.1 mL 20% TCA. The plate is kept at 4° C. for at least 1 hour to allow the substrate to precipitate. The wells are then washed five times with 0.2 mL 10% TCA, and ^32P incorporation is determined with a beta plate counter (Wallac Inc., Gaithersburg, Md.). The IC50 of the test compound was determined using the median effect method (Chou, T-C and Talalay, P. Applications of the median effect principle for the assessment of low-dose risk of carcinogens and for the quantitation of synergism and antagonism of chemotherapeutic agents. In: New Avenues in Developmental Cancer Chemotherapy (Eds. Harrap, K. T. and Connors, T. A.), pp. 37-64. Academic Press, New York, 1987).

Chain of Cdk4/Cyclin D (P11802 whole entry, species assumed): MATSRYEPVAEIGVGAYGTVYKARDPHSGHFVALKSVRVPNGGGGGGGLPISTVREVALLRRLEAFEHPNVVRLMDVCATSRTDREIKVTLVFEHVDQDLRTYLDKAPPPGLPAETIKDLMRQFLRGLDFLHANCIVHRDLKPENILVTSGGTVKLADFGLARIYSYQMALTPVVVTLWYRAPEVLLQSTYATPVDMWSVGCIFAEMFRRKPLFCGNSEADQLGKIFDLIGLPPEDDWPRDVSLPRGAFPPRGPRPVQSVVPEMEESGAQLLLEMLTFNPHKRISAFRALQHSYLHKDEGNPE
Chain of Cdk4/Cyclin D (P24385 whole entry partner, species assumed): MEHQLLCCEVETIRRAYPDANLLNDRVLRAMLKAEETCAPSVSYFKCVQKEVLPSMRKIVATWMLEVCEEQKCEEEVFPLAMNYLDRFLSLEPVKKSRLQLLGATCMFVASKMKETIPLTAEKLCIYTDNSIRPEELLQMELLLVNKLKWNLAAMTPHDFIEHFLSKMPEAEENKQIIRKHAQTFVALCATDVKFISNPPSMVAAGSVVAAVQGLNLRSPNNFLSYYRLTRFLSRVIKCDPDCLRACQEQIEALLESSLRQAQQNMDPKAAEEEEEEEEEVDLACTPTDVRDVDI

SMILES	melting point	IC50 (Cdk4/Cyclin D)	IC50 (Cdk2/cyclin A)	inhibition of neointima formation (neointima formation)
CCOC(=O)c1cnc(Nc2ccc(N3CCNCC3)cn2)nc1NC1CCCC1 (as salt: hydrochloride)	180 °C			
O=C1N(Cc2ccccc2)Cc2cnc(Nc3ccc(N4CCCCC4)cn3)nc2N1C1CCCC1 [Example 15, 3-Benzyl-1-cyclopentyl-7-(3,4,5,6-tetrahydro-2H-[1,3′]bipyridinyl-6′-ylamino)-3,4-dihydro-1H-pyrimido[4,5-d]pyrimidin-2-one]	194 to 196 °C			
COc1ccc(CNc2nc(N(CCO)CCO)nc3c2ncn3C(C)C)cc1 [CVT-313]				greater than 80%
Cc1nc2cnc(Nc3ccc(N4CCNCC4)cn3)nc2n(C2CCCC2)c1=O [Example 8, 8-Cyclopentyl-6-methyl-2-(5-piperazin-1-yl-pyridin-2-ylamino)-8H-pteridin-7-one]	221 to 223 °C	510 nM	> 5000 nM	
COc1ccc2cnc(Nc3ccc(N4CCNCC4)cn3)nc2c1C1CCCC1 [Example 13, (8-Cyclopentyl-7-methoxy-quinazolin-2-yl)-(5-piperazin-1-yl-pyridin-2-yl)-amine]	> 200 °C	4 nM	1700 nM	
Cc1nc2cnc(Nc3ccc(N4CCNCC4)cc3)nc2n(C2CCCC2)c1=O [8′, reference compound]		14 nM	913 nM	
CCc1nc2cnc(Nc3ccc(N4CCNCC4)cn3)nc2n(C2CCCC2)c1=O [Example 10, 8-Cyclopentyl-6-ethyl-2-(5-piperazin-1-yl-pyridin-2-ylamino)8H-pteridin-7-one]	203 to 208 °C (dec.)	335 nM	> 5000 nM	
CCc1nc2cnc(Nc3ccc(N4CCNCC4)cc3)nc2n(C2CCCC2)c1=O [10′, reference compound]		28 nM	4120 nM	

Continued, in another order:

melting point	IC50 (Cdk4/Cyclin D)	IC50 (Cdk2/cyclin A)	SMILES	inhibition of neointima formation (neointima formation)
218 to 219 °C			CNc1nc(Nc2ccc(N3CCOCC3)cc2)nc(NC2CCCC2)n1 [Example 14D, N-Cyclopentyl-N′-methyl-N″-(4-morpholin-4-yl-phenyl)-[1,3,5]triazine-2,4,6-triamine]	
218 to 219 °C			Clc1nc(Nc2ccc(N3CCOCC3)nc2)nc(NC2CCCC2)n1 [Example 14E, 6-Chloro-N-cyclopentyl-N′-(6-morpholin-4-yl-pyridin-3-yl)-[1,3,5]triazine-2,4-diamine]	
